Reference: patent US8163702B2, “Treatment of melanoma” (SciClone Pharmaceuticals, Inc., priority 2006, dated 2012)
Several values for one entry are separate records, joined by “and”; a condition that tells them apart may be missing. Equal values may be shown once.

Legend:
murine B16 melanoma = test: Antitumor effect in murine B16 melanoma model, tumor size and tumor weight (Example 2); assay type: in vivo, C57BL/6 mice; conditions: for Tumor volumes (cm^3) on Day 15: Length × Width × Width/2; for Tumor measurements L / Tumor measurements W / Tumor volumes: DTIC 50 mg/kg
Experimental: As per aseptic tissue culture procedures, one vial of B16 melanoma cells (supplied by Cell Culture Center of CAMS) was thawed and centrifuged at 1000 rpm, 20-25° C. for 5 minutes. The cell pellets were suspended in 0.1-0.5 mL normal saline (NS) and subcutaneously injected into the right axilla of each mouse (approximately 1×10^6 cells/mouse). When the tumor diameter was 1 cm approximately (measured by vernier caliper), the animals were euthanized with CO2 asphyxiation and the tumor was excised. Tumor cells were suspended in normal saline as previously described and the cell adaptation cycle was repeated once.
On Day 0, 1×10^6 B16 cells in a volume of 0.1 mL normal saline were subcutaneously injected into the right axillary area of the mouse. The day of tumor inoculation was defined as Day 0.
Dosing was initiated on Day 1.
Observations were recorded daily for mortality and moribundity. […] The tumors were excised, separated, and weighed.
Tumor volume was calculated using the following formula: Tumor Volume=Length×Width×Width/2 Tumor volume inhibition rate (IR) was calculated according to the formula: IR(TV)=(TVvehicle−TVdrug treated)/TVvehicle×100% TV is the tumor volume on the day of measurement.
The antitumor effect of the test article was also evaluated by tumor weight. The tumor weight of each mouse was recorded after euthanasia, and the inhibition rate of tumor weight was calculated according to the formula: IR(TW)=(Tumor weightvehicle−Tumor weightdrug treated)/Tumor weightvehicle×100%

B16 melanoma = B16 melanoma tumor growth, tumor weight and survival in C57/Bl6 mice, i.p. treatment (Example 1); assay type: in vivo; conditions: DTIC 50 mg/kg i.p.
Experimental: Tumors were induced by injecting 1×10^6 B16 melanoma cells subcutaneously in the hind leg of C57/Bl6 syngeneic mice. Mice were randomized into 5 groups of 10 animals and treated with SCV-07 at doses of 0.001, 0.01, or 0.10 mg/kg administered daily i.p. for 3 consecutive days for 2 weeks, starting 3 days after tumor implantation. Control groups were treated with saline or dacarbazine (DTIC) at a dose of 50 mg/kg i.p. for 3 days. Tumor growth was assessed every 3 days by a caliper and tumor weight was measured upon death.
Mice were injected with B16 melanoma cells and divided into 5 groups of 10 mice each. Control mice were given injections of saline or dacarbazine (DTIC). The effects of different doses of SCV-07 were examined with respect to tumor growth rate and survival time.

[1] = DTIC 50 mg/kg (Group 2), Day 15, individual animals F1-F5, M1-M5

Compound: CN(C)/N=N/c1[nH]cnc1C(N)=O [DTIC, Dacarbazine, reference compound]
- Tumor volumes (cm^3) on Day 15 (murine B16 melanoma; DTIC 50 mg/kg (Group 2), Day 15, individual animals F1-F5, M1-M5, female animals): 0.36 cm^3 and 0.15 cm^3 and 0.11 cm^3 and 0.01 cm^3
- Tumor volumes (cm^3) on Day 15 (murine B16 melanoma; DTIC 50 mg/kg (Group 2), Day 15, individual animals F1-F5, M1-M5, male animals): 0.03 cm^3 (2×) and 0.06 cm^3 and 0.17 cm^3 and 0.01 cm^3
- Tumor measurements (cm) on Day 15, L (murine B16 melanoma; [1]): 0.3 cm (2×) and 0.4 cm (2×) and 0.7 cm and 0.9 cm and 0.5 cm and 1.2 cm and 0.6 cm
- Tumor measurements (cm) on Day 15, W (murine B16 melanoma; [1]): 0.3 cm (2×) and 0.4 cm (2×) and 0.7 cm and 0.5 cm (2×) and 0.9 cm and 0.6 cm
- Tumor weights (g) on Day 17 (murine B16 melanoma; DTIC 50 mg/kg (Group 2), Day 17, individual animals F1-F5, M1-M5, female animals): 0.70 g and 0.29 g and 0.98 g and 0.78 g and 0.5 g
- Tumor weights (g) on Day 17 (murine B16 melanoma; DTIC 50 mg/kg (Group 2), Day 17, individual animals F1-F5, M1-M5, male animals): 0.46 g and 0.54 g and 0.37 g and 0.915 g and 0.18 g
- Tumor Volume (Mean ± SD) (murine B16 melanoma; Day 3, DTIC 50 mg/kg/day, not measurable defined as 0): 0 cm^3
- Tumor Volume (Mean ± SD) (murine B16 melanoma; Day 6, DTIC 50 mg/kg/day, not measurable defined as 0): 0 cm^3
- IR (tumor volume inhibition rate) (murine B16 melanoma; Day 9, DTIC 50 mg/kg/day): 96.9%
- Tumor Volume (Mean ± SD) (murine B16 melanoma; Day 9, DTIC 50 mg/kg/day): 0.001 ± 0.004 cm^3
- Tumor measurements L (murine B16 melanoma; Day 9, mouse F2): 0.3 cm
- Tumor measurements W (murine B16 melanoma; Day 9, mouse F2): 0.3 cm
- Tumor volumes (murine B16 melanoma; Day 9, mouse F2): 0.01 cm^3
- IR (tumor volume inhibition rate) (murine B16 melanoma; Day 12, DTIC 50 mg/kg/day): 98.8%
- Tumor Volume (Mean ± SD) (murine B16 melanoma; Day 12, DTIC 50 mg/kg/day): 0.009 ± 0.020 cm^3
- Tumor measurements L (murine B16 melanoma; Day 12, mouse F1): 0.3 cm
- Tumor measurements W (murine B16 melanoma; Day 12, mouse F1): 0.3 cm
- Tumor volumes (murine B16 melanoma; Day 12, mouse F1): 0.01 cm^3
- Tumor measurements L (murine B16 melanoma; Day 12, mouse F3): 0.1 cm
- Tumor measurements W (murine B16 melanoma; Day 12, mouse F3): 0.1 cm
- Tumor volumes (murine B16 melanoma; Day 12, mouse F3): 5E−04 cm^3
- Tumor measurements L (murine B16 melanoma; Day 12, mouse F4): 0.3 cm
- Tumor measurements W (murine B16 melanoma; Day 12, mouse F4): 0.3 cm
- Tumor volumes (murine B16 melanoma; Day 12, mouse F4): 0.01 cm^3
- Tumor measurements L (murine B16 melanoma; Day 12, mouse F5): 0.1 cm
- Tumor measurements W (murine B16 melanoma; Day 12, mouse F5): 0.1 cm
- Tumor volumes (murine B16 melanoma; Day 12, mouse F5): 5E−04 cm^3
- Tumor measurements L (murine B16 melanoma; Day 12, mouse M2): 0.5 cm
- Tumor measurements W (murine B16 melanoma; Day 12, mouse M2): 0.5 cm
- Tumor volumes (murine B16 melanoma; Day 12, mouse M2): 0.06 cm^3
- IR (tumor volume inhibition rate) (murine B16 melanoma; Day 15, DTIC 50 mg/kg/day): 95.1%
- Tumor Volume (Mean ± SD) (murine B16 melanoma; Day 15, DTIC 50 mg/kg/day): 0.095 ± 0.112 cm^3
- IR (inhibition rate of tumor weight) (murine B16 melanoma; Day 17, DTIC 50 mg/kg/day): 85.0%
- Tumor Weight (Mean ± SD) (murine B16 melanoma; Day 17, DTIC 50 mg/kg/day): 0.57 ± 0.27 g
- MEAN TUMOR VOLUME (B16 melanoma; DAY 10 after tumor inoculation): 480 ± 13 mm^3
- MEAN TUMOR VOLUME (B16 melanoma; DAY 17 after tumor inoculation): 545 ± 170 mm^3
- DAY 24 % of control (inhibition in tumor growth) (B16 melanoma; DAY 24): 19%
- MEAN TUMOR VOLUME (B16 melanoma; DAY 24 after tumor inoculation): 760 ± 220 mm^3
- mean tumor weight lower (B16 melanoma): 15%
